In ChEMBL document CHEMBL3352575, “Synthesis, in vitro and in vivo antitumor activity of pyrazole-fused 23-hydroxybetulinic acid derivatives” (Bioorg Med Chem Lett, 2015) one finds IC50 data, which are given here for 19 compounds.

Holding throughout (format): functional, cell-based
A short description of assay [1]: Antiproliferative activity against human HL60 cells after 72 hrs by MTT assay. The following applies: HL-60, 72 h. (Tetrazolium assays rely on reduction of a dye to a coloured formazan, in cell work by metabolically active cells.)
A further assay has as its system HeLa. Briefly: Antiproliferative activity against human HeLa cells after 72 hrs by MTT assay.
Assay [2] can be described thus: Antiproliferative activity against human Bel7402 cells after 72 hrs by MTT assay. To be noted: Bel-7402, 72 h.
The subject of a further assay is B16. The assay can be described thus: Antiproliferative activity against mouse B16 cells after 72 hrs by MTT assay. The following applies: B16, 72 h.
The nature of assay [3]: Antiproliferative activity against human SF763 cells after 72 hrs by MTT assay. The following applies: SF763, 72 h.

Turning to `C=C(C)[C@@H]1CC[C@]2(C(=O)N3CCOCC3)CC[C@]3(C)[C@H](CC[C@@H]4[C@@]5(C)Cc6c[nH]nc6[C@@](C)(CO)[C@@H]5CC[C@]43C)[C@@H]12`, the IC50 was found to be 39 µM in assay [1]; 35.5 µM in the assay on HeLa; 39.4 µM in assay [2]; 31.1 µM with B16; 33.7 µM in assay [3].

For the compound `C=C(C)[C@@H]1CC[C@]2(C(=O)O)CC[C@]3(C)[C@H](CC[C@@H]4[C@@]5(C)Cc6cn(CC(=O)O)nc6[C@@](C)(CO)[C@@H]5CC[C@]43C)[C@@H]12`, the IC50 was 46.3 µM in assay [1]; 59.9 µM in the assay on HeLa; 50.2 µM in assay [2]; 39.7 µM in the assay with B16; 30.2 µM in assay [3].

On to `C=C(C)[C@@H]1CC[C@]2(C(=O)NCC(=O)OC)CC[C@]3(C)[C@H](CC[C@@H]4[C@@]5(C)Cc6c[nH]nc6[C@@](C)(COC(C)=O)[C@@H]5CC[C@]43C)[C@@H]12`, for which the half-inhibitory concentration (IC50) in assay [1] stood at 20.9 µM; with HeLa it was 21.2 µM; in assay [2], 19.3 µM; in the assay with B16, 18.9 µM; in assay [3], 17.7 µM.

Turning to `C=C(C)[C@@H]1CC[C@]2(C(=O)O)CC[C@]3(C)[C@H](CC[C@@H]4[C@@]5(C)Cc6c[nH]nc6[C@@](C)(COC(C)=O)[C@@H]5CC[C@]43C)[C@@H]12`, the IC50 in assay [1] amounted to 25.1 µM; with HeLa, 17.8 µM; in assay [2] it was 17.1 µM; in the assay with B16 it was 15.3 µM; in assay [3], 14.1 µM.

On to `C=C(C)[C@@H]1CC[C@]2(C(=O)O[C@@H]3O[C@H](CO)[C@@H](O)[C@H](O)[C@H]3O)CC[C@]3(C)[C@H](CC[C@@H]4[C@@]5(C)Cc6c[nH]nc6[C@@](C)(COC(C)=O)[C@@H]5CC[C@]43C)[C@@H]12`, for which the IC50 in assay [1] came to 28.5 µM; in the assay with HeLa it was 20 µM; in assay [2], 14.1 µM; in the assay with B16 it was 18.9 µM; in assay [3], 20.1 µM.

As for `C=C(C)[C@@H]1CC[C@]2(C(=O)OCC(=O)OCC)CC[C@]3(C)[C@H](CC[C@@H]4[C@@]5(C)Cc6cn(CC(=O)OCC)nc6[C@@](C)(COC(C)=O)[C@@H]5CC[C@]43C)[C@@H]12`, the IC50 in assay [1] came to 35.1 µM; in the assay with HeLa it was 38.2 µM; in assay [2] it was 39.2 µM; in the assay with B16, 29.3 µM; in assay [3], 34 µM.

For the compound `C=C(C)[C@@H]1CC[C@]2(C(=O)N3CCOCC3)CC[C@]3(C)[C@H](CC[C@@H]4[C@@]5(C)Cc6c[nH]nc6[C@@](C)(COC(C)=O)[C@@H]5CC[C@]43C)[C@@H]12`, the IC50 turned out to be 9.85 µM in assay [1]; 10 µM in the assay on HeLa; 10.2 µM in assay [2]; 7.89 µM in the assay with B16; 8.45 µM in assay [3].

For the compound `C=C(C)[C@@H]1CC[C@]2(C(=O)OCc3ccccc3)CC[C@]3(C)[C@H](CC[C@@H]4[C@@]5(C)Cc6cn(C(C)=O)nc6[C@@](C)(COC(C)=O)[C@@H]5CC[C@]43C)[C@@H]12`, the IC50 in assay [1] came to 33.6 µM; with HeLa, 30.9 µM; in assay [2], 26.7 µM; in the assay with B16, 28 µM; in assay [3], 28.4 µM.

Regarding `C=C(C)[C@@H]1CC[C@]2(C(=O)O)CC[C@]3(C)[C@H](CC[C@@H]4[C@@]5(C)Cc6cn(CC)nc6[C@@](C)(CO)[C@@H]5CC[C@]43C)[C@@H]12`, the IC50 in assay [1] was determined as 47 µM; with HeLa, 58.8 µM; in assay [2], 50.3 µM; in the assay with B16 it was 42.4 µM; in assay [3], 44.1 µM.

For `C=CCn1cc2c(n1)[C@@](C)(CO)[C@@H]1CC[C@]3(C)[C@H](CC[C@@H]4[C@H]5[C@H](C(=C)C)CC[C@]5(C(=O)OCc5ccccc5)CC[C@]43C)[C@@]1(C)C2`, the IC50 in assay [1] stood at 31.1 µM; in the assay on HeLa, 26.4 µM; in assay [2], 29.6 µM; in the assay on B16, 20.1 µM; in assay [3], 21.1 µM.

On to `C=C(C)[C@@H]1CC[C@]2(C(=O)O)CC[C@]3(C)[C@H](CC[C@@H]4[C@@]5(C)Cc6c[nH]nc6[C@@](C)(CO)[C@@H]5CC[C@]43C)[C@@H]12`, for which the IC50 in assay [1] amounted to 29.1 µM; in the assay on HeLa it was 21.1 µM; in assay [2], 21 µM; in the assay on B16, 19.8 µM; in assay [3] it was 20.8 µM.

For `C=C(C)[C@@H]1CC[C@]2(C(=O)OCC(=O)OCC)CC[C@]3(C)[C@H](CC[C@@H]4[C@@]5(C)Cc6cn(C(C)=O)nc6[C@@](C)(COC(C)=O)[C@@H]5CC[C@]43C)[C@@H]12`, the IC50 amounted to 45.6 µM in assay [1]; 40.4 µM with HeLa; 36 µM in assay [2]; 35.7 µM with B16; 37.6 µM in assay [3].

As to `COc1cccc2c1C(=O)c1c(O)c3c(c(O)c1C2=O)C[C@@](O)(C(=O)CO)C[C@@H]3O[C@H]1C[C@H](N)[C@H](O)[C@H](C)O1` [DOXORUBICIN], the IC50 in assay [2] came to 0.22 µM.

With `C=C(C)[C@@H]1CC[C@]2(C(=O)OCC)CC[C@]3(C)[C@H](CC[C@@H]4[C@@]5(C)Cc6cn(CC)nc6[C@@](C)(COC(C)=O)[C@@H]5CC[C@]43C)[C@@H]12`, the 50% inhibitory concentration (IC50) in assay [1] was found to be 28.1 µM; with HeLa, 24.2 µM; in assay [2], 30.2 µM; in the assay on B16, 19.4 µM; in assay [3], 19.4 µM.

`C=CCOC(=O)[C@]12CC[C@@H](C(=C)C)[C@@H]1[C@H]1CC[C@@H]3[C@@]4(C)Cc5cn(C(C)=O)nc5[C@@](C)(COC(C)=O)[C@@H]4CC[C@@]3(C)[C@]1(C)CC2`: the IC50 in assay [1] is 32.3 µM; with HeLa, 27.4 µM; in assay [2], 23.1 µM; in the assay with B16, 19.8 µM; in assay [3], 19.5 µM.

With `C=C(C)[C@@H]1CC[C@]2(C(=O)OCc3ccccc3)CC[C@]3(C)[C@H](CC[C@@H]4[C@@]5(C)Cc6cn(CC(=O)OCC)nc6[C@@](C)(CO)[C@@H]5CC[C@]43C)[C@@H]12`, the IC50 in assay [1] is 39.1 µM; in the assay with HeLa it was 37 µM; in assay [2], 43 µM; in the assay on B16, 32.9 µM; in assay [3] it was 33 µM.

Take `C=C(C)[C@@H]1CC[C@]2(C(=O)O)CC[C@]3(C)[C@H](CC[C@@H]4[C@@]5(C)Cc6cn(CCC)nc6[C@@](C)(CO)[C@@H]5CC[C@]43C)[C@@H]12`: the IC50 was found to be 45.8 µM in assay [1]; 54.1 µM in the assay on HeLa; 48 µM in assay [2]; 44.3 µM in the assay on B16; 41 µM in assay [3].

Regarding `C=C(C)[C@@H]1CC[C@]2(C(=O)Oc3ccc(C#N)cc3)CC[C@]3(C)[C@H](CC[C@@H]4[C@@]5(C)Cc6cn(C(C)=O)nc6[C@@](C)(COC(C)=O)[C@@H]5CC[C@]43C)[C@@H]12`, the IC50 in assay [1] is 31.3 µM; in the assay with HeLa, 28 µM; in assay [2] it was 18.1 µM; in the assay on B16 it was 22.5 µM; in assay [3] it was 23.4 µM.

Consider `C=C(C)[C@@H]1CC[C@]2(C(=O)OCCO)CC[C@]3(C)[C@H](CC[C@@H]4[C@@]5(C)Cc6cn(C(C)=O)nc6[C@@](C)(COC(C)=O)[C@@H]5CC[C@]43C)[C@@H]12`, for which the IC50 in assay [1] worked out at 43.2 µM; in the assay with HeLa, 40.1 µM; in assay [2] it was 34.4 µM; in the assay with B16 it was 33.8 µM; in assay [3], 32.1 µM.

A word on the IC50: it is the concentration that inhibits the measured activity by half. Read a low IC50 as greater potency in that assay.
